# Read-outs that look alike come from different tables or passages of the source.
# What was measured:
# [1] = system: SARS-CoV-2; assay: Live virus-based microneutralization (MN) assay, SARS-CoV-2-induced CPE in Vero E6 cells; format: cell-based; parameters: key to SARS-CoV-2 induced CPE in Vero E6 cells: Cytotoxicity; ND: Both cytotoxicity and CPE are not detected.; SARS-CoV-2 induced CPE; conditions: for SARS-CoV-2 induced CPE in Vero E6 cells: Repeat 1 and 2
# [2] = system: SARS-CoV-2; format: cell-based; parameters: key: Cytotoxicity; ND: Both cytotoxicity and CPE are not detected.; SARS-CoV-2 induced CPE; conditions: Repeat 1 and 2
# [3] = mice, dose as high as 300 mg/kg/day; cited from earlier work
# [4] = patients, state Cmax; cited from earlier work
# [5] = biological target: M^Pro (Severe acute respiratory syndrome coronavirus 2, UniProt P0DTD1); format: biochemical
structure (smiles),measurement,setting,value
CC(C)COCC(CN(Cc1ccccc1)c1ccccc1)N1CCCC1 (stereo not drawn) [Bepridil],SARS-CoV-2 induced CPE in Vero E6 cells,[1]; bepridil 0.16 μM,CPE
same,SARS-CoV-2 induced CPE in Vero E6 cells,[1]; bepridil 0.31 μM,CPE
same,SARS-CoV-2 induced CPE in Vero E6 cells,[1]; bepridil 0.62 μM,CPE
same,SARS-CoV-2 induced CPE in Vero E6 cells,[1]; bepridil 1.25 μM,CPE
same,SARS-CoV-2 induced CPE in Vero E6 cells,[1]; bepridil 2.5 μM,CPE
same,SARS-CoV-2 induced CPE in Vero E6 cells,[1]; bepridil 50 μM,C
same,SARS-CoV-2 induced CPE in Vero E6 cells,[1]; bepridil 100 μM,C
same,SARS-CoV-2 induced CPE in Vero E6 cells,[1]; bepridil 200 μM,C^a and C
same,SARS-CoV-2 induced CPE in ACE2-expressing A549 cells,[2]; bepridil 1.56 μM,CPE
same,SARS-CoV-2 induced CPE in ACE2-expressing A549 cells,[2]; bepridil 3.12 μM,CPE
same,mating behavior and reproductive performance,[3],did not show alteration in mating behavior and reproductive performance
same,Cmax,[4],3.72 µM
CC(C)(C)c1ccc(C(=O)CCCN2CCC(OC(c3ccccc3)c3ccccc3)CC2)cc1 [Ebastine],Cytopathogenic effect (CPE),[1],observed
Cc1cccc(C)c1OCC(=O)N[C@@H](Cc1ccccc1)[C@@H](O)C[C@H](Cc1ccccc1)NC(=O)[C@H](C(C)C)N1CCCNC1=O [Lopinavir],IC50,"[5]; 50 nM M^Pro, 10 μM Sub3, mean ± SE, triplicate",486 ± 2 µM
same,Hill Slope,"[5]; Hill coefficient of IC50 curve, four-parameter fit",29.9 ± 2.4
same,Hill Slope,"[5]; Hill coefficient of IC50 curve, four-parameter fit, listed as lopinavir",lowest Hill coefficients
O=c1[nH]c2ccccc2n1C1CCN(CCCC(c2ccc(F)cc2)c2ccc(F)cc2)CC1 [Pimozide],Cytopathogenic effect (CPE),"[1]; Vero E6 cells, all tested concentrations, 0.16 to 200 μM",observed
CCOC(=O)/C=C/[C@H](C[C@@H]1CCNC1=O)NC(=O)[C@@H](CC(=O)[C@@H](NC(=O)c1cc(C)on1)C(C)C)Cc1ccc(F)cc1 [Rupintrivir],Hill Slope,[5],1.4 ± 0.2

# Source: US11806332B2, “Compositions and methods for inhibition of SARS-CoV-2 viral infections” (priority 2020, dated 2023)
